Experimental data from US20230174584A1, “Antibiotic Compounds” (priority 2019, published 2023).
In brackets after ≈: the same amount, converted by molar mass.

What was measured:
[1] = system: S. aureus 880 (BR-VRSA), NR-49120; assay: MIC assay; type: cell-based, Staphylococcus aureus; conditions: S. aureus 880, NR-49120 VRSA
Description: (§1) The antibacterial activity of the compounds was tested against a panel of bacteria, including Gram-positive bacteria (S. aureus ATCC29213, S. aureus USA300, S. aureus LIM-2, NR-45881, S. aureus HIP13419, NR-46413, E. faecium E155, E. faecium E7314, E. faecium E980, E. faecalis E1246, E. faecalis E7406 and S. pneumonia 153). The antibacterial activity of the compounds was further tested against S. aureus NY-155, NR-46236, S. aureus HIP12864, NR-46074, S. aureus 880 (BR-VRSA), NR-49120, E. faecalis E1246, E. faecalis E7604, as well as some Gram-negative bacteria (Escherichia coli and Klebsiella pneumoniae). Minimum inhibitory concentrations (MICs) in μg/mL were performed according to the CLSI guidelines. From glycerol stocks, bacterial strains were cultured on blood agar plates and incubated at 37° C. for 18 h. A single colony was transferred to tryptic soy broth (TSB) with 0.002% polysorbate 80 (p80). For the Enterococcus, VISA and VRSA strains, the cultures were grown at 37° C. until the optical density of the suspension reached a level equivalent to the 0.5 McFarland standard. The bacterial suspensions were diluted in TSB with 0.002% p80 to reach a bacterial cell density of 10^6 CFU/mL. In case of the other (vancomycin-sensitive) S. aureus strains, the direct colony suspension method was used. For these strains, after transfer of the colonies to TSB with 0.002% p80, they were immediately diluted to 10^6 CFU/mL, instead of incubated prior to this dilution. In the case of S. pneumonia, direct colony suspension was used by immediately suspending multiple colonies from fresh blood agar plates in TSB+0.002% p80 to an OD600 of 0.5 and subsequent dilution to 10^6 CFU mL^−1 in TSB+0.002% p80+5% lysed horse blood. Antibiotic dilutions for this strains were also made in TSB+0.002% p80+5% lysed horse blood. Both agar and microplates containing S. pneumonia were incubated at 37° C. with 5% CO2 for 24 h with constant shaking (600 rpm). […] The cultures were grown to exponential phase (OD600=0.5) at 37° C. […] In polypropylene 96-well microtiter plates, test compounds were added in biological triplicates and serial diluted 2-fold by transfer and mixing from one well to the next to achieve a final volume of 50 μL per well. An equal volume of bacterial suspension (10^6 CFU mL^−1) was added to the wells. The plates were sealed with breathable membranes and incubated at 37° C. for 24 h with constant shaking (600 rpm). In polypropylene microtiter plates, 100 μL of the test compounds was added to the first row in biological triplicates, and 50 μL of media was added to the other wells. The compounds were subjected to serial dilution by transfer and mixing of 50 μL from one well to the next. Subsequently, 50 μL of bacterial suspension (10^6 CFU/mL) was added to the wells. The plates were sealed with breathable membranes and incubated at 37° C. for 24 h with constant shaking (600 rpm). Positive growth control consisted of wells with bacterial suspension and without antibiotic. Negative growth control consisted of solely media without bacterial suspension or antibiotic. The MICs were determined from the median of a minimum of triplicates.

S. aureus ATCC29213 = assay: MIC assay; type: cell-based, Staphylococcus aureus; conditions: S. aureus ATCC29213 MSSA
Description: as §1

[2] = system: S. aureus HIP12864, NR-46074; assay: MIC assay; type: cell-based, Staphylococcus aureus; conditions: S. aureus HIP12864, NR-46074 VISA
Description: as §1

[3] = system: S. aureus LIM-2, NR-25881; assay: MIC assay; type: cell-based, Staphylococcus aureus; conditions: S. aureus LIM-2, NR-25881 VISA
Description: as §1

[4] = system: S. aureus NY-155, NR-46236; assay: MIC assay; type: cell-based, Staphylococcus aureus; conditions: S. aureus NY-155, NR-46236 MRSA
Description: as §1

[5] = system: S. aureus HIP13419, NR-46413; assay: microbe, parasite or virus in culture; type: cell-based, Staphylococcus aureus; conditions: S. aureus HIP13419, NR-46413 VRSA
Description: as §1

S. aureus USA300 = assay: microbe, parasite or virus in culture; type: cell-based, Staphylococcus aureus
Description: as §1

E. faecium E980 = assay: MIC assay; type: cell-based, Enterococcus faecium; conditions: E. faecium E980 VSE
Description: as §1

E. faecium E155 = assay: microbe, parasite or virus in culture; type: cell-based, Enterococcus faecium; conditions: E. faecium E155 VRE (VanA)
Description: as §1

E. faecium E7314 = assay: microbe, parasite or virus in culture; type: cell-based, Enterococcus faecium; conditions: E. faecium E7314 VRE (VanB)
Description: as §1

E. faecalis E1246 = assay: MIC assay; type: cell-based, Enterococcus faecalis
Description: as §1

E. faecalis E7406 = assay: microbe, parasite or virus in culture; type: cell-based, Enterococcus faecalis; conditions: E. faecalis E7406 VRE (VanB)
Description: as §1

E. faecalis E7604 = assay: microbe, parasite or virus in culture; type: cell-based, Enterococcus faecalis; conditions: E. faecalis E7604 VRE (vanB)
Description: as §1

S. pneumoniae 153 = assay: MIC assay; type: cell-based; conditions: S. pneumoniae 153; TSB+0.002% p80+5% lysed horse blood
Description: as §1

MRSA USA300 = assay: MIC assay in the presence of sheep serum; type: cell-based, Staphylococcus aureus; conditions: MRSA USA300, TSB + 0.002% p80 + 50% sheep serum
Description: as §1
The activity of the compounds was further assessed against MRSA USA300 strain in the presence of sheep) serum in another MIC assay. The cultures that grew in the presence of serum used TSB+0.002% P80+50% sheep serum as growth media, as opposed to normal MICs done in only TSB+0.002% P80.

[6] = E. faecalis E1246 VRE (VanA), Table 7
[7] = E. faecalis E1246 VRE (vanA), Table 9

Molecule | MIC [1] [µg/mL] | MIC (S. aureus ATCC29213) [µg/mL] | MIC [2] [µg/mL] | MIC [3] [µg/mL] | MIC [4] [µg/mL] | MIC [5] [µg/mL] | MIC (S. aureus USA300; MRSA USA300, TSB + 0.002% p80) [µg/mL] | MIC (S. aureus USA300; S. aureus USA300 MRSA) [µg/mL] | MIC (E. faecium E980) [µg/mL] | MIC (E. faecium E155) [µg/mL] | MIC (E. faecium E7314) [µg/mL] | MIC (E. faecalis E1246; [6]) [µg/mL] | MIC (E. faecalis E1246; [7]) [µg/mL] | MIC (E. faecalis E7406) [µg/mL] | MIC (E. faecalis E7604) [µg/mL] | MIC (S. pneumoniae 153) [µg/mL] | MIC (MRSA USA300) [µg/mL]
CCCCCCNC(N)=Nc1ccc(CNC2(C)CC(OC3C(Oc4c5cc6cc4Oc4ccc(cc4Cl)C(O)C4NC(=O)C(NC(=O)C6NC(=O)C(CC(N)=O)NC(=O)C(NC(=O)C(CC(C)C)NC)C(O)c6ccc(c(Cl)c6)O5)c5ccc(O)c(c5)-c5c(O)cc(O)cc5C(C(=O)O)NC4=O)OC(CO)C(O)C3O)OC(C)C2O)cc1 (centres unmarked) [Compound 4] | 16 (≈ 9.52 µM) | 0.0625 (≈ 0.0372 µM) | 0.5 (≈ 0.298 µM) | 0.25 (≈ 0.149 µM) | 0.063 (≈ 0.0375 µM) | 4 (≈ 2.38 µM) | 0.063 | 0.0625 (≈ 0.0372 µM) | 0.03125 (≈ 0.0186 µM) | 8 (≈ 4.76 µM) | 0.03125 (≈ 0.0186 µM) | 32 (≈ 19 µM) | 32 (≈ 19 µM) | 0.25 (≈ 0.149 µM) | 0.25 (≈ 0.149 µM) | 0.016 (≈ 0.00952 µM) | 0.063
CCCCCCCCCCNC(N)=Nc1ccc(CN[C@@]2(C)C[C@H](O[C@H]3[C@H](Oc4c5cc6cc4Oc4ccc(cc4Cl)[C@@H](O)[C@@H](NC(=O)[C@@H](CC(C)C)NC)C(=O)N[C@@H](CC(N)=O)C(=O)N[C@H]6C(=O)N[C@H]4C(=O)N[C@H](C(=O)N[C@H](C(=O)O)c6cc(O)cc(O)c6-c6cc4ccc6O)[C@H](O)c4ccc(c(Cl)c4)O5)O[C@H](CO)[C@@H](O)[C@@H]3O)O[C@@H](C)[C@H]2O)cc1 [Compound 8] | 0.25 (≈ 0.144 µM) | 0.01562 (≈ 0.00899 µM) | 0.062 (≈ 0.0357 µM) | 0.016 (≈ 0.00921 µM) | ≤0.008 | 0.063 (≈ 0.0363 µM) | 0.063 | 0.0625 (≈ 0.036 µM) | 0.01562 (≈ 0.00899 µM) | 0.25 (≈ 0.144 µM) | ≤0.007812 | 1 (≈ 0.576 µM) | 1 (≈ 0.576 µM) | ≤0.007812 | ≤0.008 | ≤0.008 | 0.125
CCCCCCCCCCCCNC(N)=Nc1ccc(CN[C@@]2(C)C[C@H](O[C@H]3[C@H](Oc4c5cc6cc4Oc4ccc(cc4Cl)[C@@H](O)[C@@H](NC(=O)[C@@H](CC(C)C)NC)C(=O)N[C@@H](CC(N)=O)C(=O)N[C@H]6C(=O)N[C@H]4C(=O)N[C@H](C(=O)N[C@H](C(=O)O)c6cc(O)cc(O)c6-c6cc4ccc6O)[C@H](O)c4ccc(c(Cl)c4)O5)O[C@H](CO)[C@@H](O)[C@@H]3O)O[C@@H](C)[C@H]2O)cc1 [Compound 9] | 0.25 (≈ 0.142 µM) | 0.125 (≈ 0.0708 µM) | 0.25 (≈ 0.142 µM) | 0.5 (≈ 0.283 µM) | 0.5 (≈ 0.283 µM) | 0.125 (≈ 0.0708 µM) | 0.5 | 0.5 (≈ 0.283 µM) | 0.125 (≈ 0.0708 µM) | 0.125 (≈ 0.0708 µM) | 0.03125 (≈ 0.0177 µM) | 1 (≈ 0.567 µM) | 1 (≈ 0.567 µM) | 0.0625 (≈ 0.0354 µM) | 0.063 (≈ 0.0357 µM) | ≤0.008 | 1
CCCCCCCCCCCCCCNC(N)=Nc1ccc(CN[C@@]2(C)C[C@H](O[C@H]3[C@H](Oc4c5cc6cc4Oc4ccc(cc4Cl)[C@@H](O)[C@@H](NC(=O)[C@@H](CC(C)C)NC)C(=O)N[C@@H](CC(N)=O)C(=O)N[C@H]6C(=O)N[C@H]4C(=O)N[C@H](C(=O)N[C@H](C(=O)O)c6cc(O)cc(O)c6-c6cc4ccc6O)[C@H](O)c4ccc(c(Cl)c4)O5)O[C@H](CO)[C@@H](O)[C@@H]3O)O[C@@H](C)[C@H]2O)cc1 [Compound 10] | 1 (≈ 0.558 µM) | 2 (≈ 1.12 µM) | 2 (≈ 1.12 µM) | 4 (≈ 2.23 µM) | 8 (≈ 4.46 µM) | 0.5 (≈ 0.279 µM) | 4 | 4 (≈ 2.23 µM) | 0.5 (≈ 0.279 µM) | 0.5 (≈ 0.279 µM) | 0.5 (≈ 0.279 µM) | 2 (≈ 1.12 µM) | 2 (≈ 1.12 µM) | 1 (≈ 0.558 µM) | 1 (≈ 0.558 µM) | 0.031 (≈ 0.0173 µM) | 16
CCCCN(CCCC)C(N)=Nc1ccc(CN[C@@]2(C)C[C@H](O[C@H]3[C@H](Oc4c5cc6cc4Oc4ccc(cc4Cl)[C@@H](O)[C@@H](NC(=O)[C@@H](CC(C)C)NC)C(=O)N[C@@H](CC(N)=O)C(=O)N[C@H]6C(=O)N[C@H]4C(=O)N[C@H](C(=O)N[C@H](C(=O)O)c6cc(O)cc(O)c6-c6cc4ccc6O)[C@H](O)c4ccc(c(Cl)c4)O5)O[C@H](CO)[C@@H](O)[C@@H]3O)O[C@@H](C)[C@H]2O)cc1 [Compound 11] | 64 (≈ 37.5 µM) | 0.125 (≈ 0.0732 µM) | 1 (≈ 0.585 µM) | 0.5 (≈ 0.293 µM) | 0.063 (≈ 0.0369 µM) | 16 (≈ 9.36 µM) | 0.125 | 0.125 (≈ 0.0732 µM) | 0.0625 (≈ 0.0366 µM) | 32 (≈ 18.7 µM) | 0.5 (≈ 0.293 µM) | >128 | >128 | 8 (≈ 4.68 µM) | 8 (≈ 4.68 µM) | 0.063 (≈ 0.0369 µM) | 0.063
Teicoplanin [reference compound] | 16 | 0.5 | 4 | 16 | 0.5 | 32 | 0.5 | 0.5 | 0.5 | – | 0.25 | >128 | >128 | 0.125 | 0.125 | 0.031 | 2
